Earlier results, collected in patent US20080138440A1, “Methods of diagnosing and alleviating gadolinium toxicity” (priority 2006, published 2008).

Conditions: high doses; cited from earlier work

## CNC[C@H](O)[C@@H](O)[C@H](O)[C@H](O)CO.CNC[C@H](O)[C@@H](O)[C@H](O)[C@H](O)CO.O=C([O-])CN(CCN(CC(=O)[O-])CC(=O)O)CCN(CC(=O)[O-])CC(=O)O.[Gd+3] [gadopentetate dimeglumine injection, gadopentetate dimeglumine]
  arrhythmias: Arrhythmias have been noted
